Test results as given in patent publication US10221163B2 (priority 2015, dated 2019).
Like-named read-outs stand apart in the source and are kept apart here.

What was measured:
IMP-1 = IMP-1 (Serratia marcescens, UniProt P52699); test: biochemical; assay type: biochemical; details: fluorescence assay, CCF2-FA substrate, 2 pM enzyme, 2 hours at 25° C.; read-out: IMP-1 IC50
How it was run: (§1)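 Inhibitor was mixed with the metallo-β-lactamase and CCF2-FA. After 2 hours at 25° C, fluorescence of the coumarin–fluorescein cephalosporin substrate was read. IC50 was calculated with a 4-parameter fit.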

NDM-1 = NDM-1 (Klebsiella pneumoniae, UniProt C7C422); test: biochemical; assay type: biochemical; details: fluorescence assay, CCF2-FA substrate, 1 pM enzyme, 2 hours at 25° C.; read-out: NDM-1 IC50
How it was run: as §1

VIM-1 = VIM-1 (Pseudomonas aeruginosa (strain ATCC 15692 / DSM 22644 / CIP 104116 / JCM 14847 / LMG 12228 / 1C / PRS 101 / PAO1), UniProt A0A0F7KYQ8); test: biochemical; details: CCF2-FA substrate, 30 pM enzyme, 2 hours at 25° C.
How it was run: as §1

[1] = test system: Escherichia coli expressing NDM-1 (CLB30005, CLB30016); assay type: cell-based; details: NDM-1 strain, with imipenem 1 μg/ml, 95% inhibition of growth
How it was run: (§2)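 Growth by absorbance after 22–24 h at 35°C defined the read-out, with imipenem fixed at 1 μg/ml alongside compound. Inocula came from overnight blood-agar colonies at 35°C, resuspended in saline and diluted 1:100 in 1.1×CAMHB.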

[2] = test system: Klebsiella pneumoniae expressing VIM-1 (IHMA599644); assay type: cell-based; details: VIM-1 strain IHMA599644, with imipenem 1 μg/ml, 95% inhibition of growth
How it was run: as §2

[3] = test system: Serratia marcescens expressing IMP-1 (CL5741); assay type: cell-based; details: IMP-1 strain CL5741, with imipenem 1 μg/ml, 95% inhibition of growth
How it was run: as §2

[4] = test system: Pseudomonas aeruginosa efflux+ (MB9798), IMP-1; assay type: cell-based; details: concentration restoring susceptibility to imipenem at 2 μg/mL in the presence of a class A, C, D serine β-lactamase inhibitor closely related to relebactam
How it was run: (§3)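 P. aeruginosa PAO1-derived IMP-1 strains, efflux+ MB9798 and efflux− MB9799, tested by standard microbroth MIC with imipenem and/or ceftazidime fixed, usually at CLSI breakpoint, plus fixed class A/C β-lactamase inhibitor against AmpC. Inhibitor titrated; concentration restoring susceptibility recorded; MB9798/MB9799 fold difference indicates efflux.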

[5] = test system: Pseudomonas aeruginosa efflux− (MB9799), IMP-1; assay type: cell-based; details: concentration restoring susceptibility to imipenem at 2 μg/mL in the presence of a class A, C, D serine β-lactamase inhibitor closely related to relebactam
How it was run: as §3

[6] = test system: Pseudomonas aeruginosa MB9798 vs MB9799; details: ratio MITC95 PA_9798/MITC95 PA_9799
How it was run: as §3

[7] = fluorescence assay, read-out: VIM-1 IC50

Sequence of IMP-1 (P52699 whole entry, looked up, species assumed): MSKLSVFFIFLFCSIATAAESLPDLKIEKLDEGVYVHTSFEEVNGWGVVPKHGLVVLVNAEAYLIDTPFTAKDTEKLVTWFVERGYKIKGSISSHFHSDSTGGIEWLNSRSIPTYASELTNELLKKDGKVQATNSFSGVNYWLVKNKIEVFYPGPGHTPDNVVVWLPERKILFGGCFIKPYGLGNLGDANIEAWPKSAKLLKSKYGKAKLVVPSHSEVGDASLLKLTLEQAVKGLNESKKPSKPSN
Sequence of NDM-1 (C7C422 whole entry, looked up, species assumed): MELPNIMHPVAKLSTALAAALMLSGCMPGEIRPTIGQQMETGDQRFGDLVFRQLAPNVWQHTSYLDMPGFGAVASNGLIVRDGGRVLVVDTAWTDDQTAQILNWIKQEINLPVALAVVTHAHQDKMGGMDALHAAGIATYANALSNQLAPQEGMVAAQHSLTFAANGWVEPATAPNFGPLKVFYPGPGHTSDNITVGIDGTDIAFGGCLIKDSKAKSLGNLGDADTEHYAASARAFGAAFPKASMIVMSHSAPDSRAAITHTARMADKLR

Structure (SMILES) | IC50 (IMP-1) | IC50 (NDM-1) | IC50 (VIM-1; [7]) | Escherichia coli MITC95 [1] | Klebsiella pneumoniae MITC95 [2] | Serratia marcescens MITC95 [3] | P. aeruginosa expressing IMP-1, efflux + (MB9798) MITC95 [4] | P. aeruginosa expressing IMP-1, efflux − (MB9799) MITC95 [5] | Efflux ratio [6] | IC50 (VIM-1; VIM-1 IC50, fluorescence assay)
Nc1ccc(-c2ccc(S(=O)(=O)NC[C@H](N)CO)c(S(N)(=O)=O)c2-c2nn[nH]n2)cn1 [Example 297, (S)—N^1-(2-amino-3-hydroxypropyl)-4-(6-aminopyridin-3-yl)-3-(2H -tetrazol-5-yl) benzene-1,2-disulfonamide] | 0.569 nM | 0.331 nM | 0.423 nM | 0.3906 µM | 1.563 µM | 0.7813 µM | 0.7813 µM | 0.7813 µM | 1.00 | 
NC[C@@H](O)CNS(=O)(=O)c1ccc(-c2cccc3[nH]c(N)nc23)c(-c2nn[nH]n2)c1S(N)(=O)=O [Example 298, (R)-4-(2-amino-1H-benzo[d]imidazol-4-yl)-N1-(3-amino-2-hydroxypropyl)-3-(2H-tetrazol-5-yl)-benzene-1,2-disulfonamide] | 0.671 nM | 0.0573 nM | 0.135 nM | 0.2786 µM | 1.031 µM | 0.4531 µM | 0.3555 µM | 0.5156 µM | 0.69 | 
NCc1nc2c(-c3ccc(S(=O)(=O)NC[C@H](O)CN)c(S(N)(=O)=O)c3-c3nn[nH]n3)cccc2[nH]1 [Example 299, (R)—N1-(3-amino-2-hydroxypropyl)-4-(2-(aminomethyl)-1H-benzo[d]imidazol-4-yl)-3-(2H-tetrazol-5-yl)benzene-1,2-disulfonamide] | 2.65 nM | 0.265 nM |  | 0.7813 µM | 1.563 µM | 1.563 µM | 0.7813 µM | 0.7813 µM | 1.00 | 0.154 nM
NCc1nc2c(-c3ccc(S(=O)(=O)NC[C@H](O)CN)c(S(N)(=O)=O)c3-c3nn[nH]n3)cccc2s1 [Example 300, (R)—N1-(3-amino-2-hydroxypropyl)-4-(2-(aminomethyl)benzo[d]thiazol-4-yl)-3-(2H-tetrazol-5-yl)benzene-1,2-disulfonamide] | 0.318 nM | 0.0703 nM |  | 1.563 µM | 1.563 µM | 1.563 µM | 0.7813 µM | 0.7813 µM | 1.00 | 0.0678 nM
NC[C@@H](O)CNS(=O)(=O)c1ccc(-c2cccc3[nH]cnc23)c(-c2nn[nH]n2)c1S(N)(=O)=O [Example 301, (R)-4-(1H-benzo[d]imidazol-4-yl)-N1-(3-amino-2-hydroxypropyl)-3-(2H-tetrazol-5-yl)-benzene-1,2-disulfonamide] | 0.129 nM | 0.0163 nM | 0.0528 nM | 1.563 µM | 3.125 µM | 0.3906 µM | 0.7813 µM | 0.7813 µM | 1.00 | 
Cn1c(N)nc2c(-c3ccc(S(=O)(=O)NC[C@H](O)CN)c(S(N)(=O)=O)c3-c3nn[nH]n3)cccc21 [Example 302, (R)-4-(2-amino-1-methyl-1H-benzo[d]imidazol-4-yl)-N1-(3-amino-2-hydroxypropyl)-3-(2H-tetrazol-5-yl)benzene-1,2-disulfonamide] | 0.341 nM | 0.0449 nM |  | 0.7813 µM | 1.563 µM | 0.7813 µM | 0.7813 µM | 0.7813 µM | 1.00 | 0.141 nM
NC[C@@H](O)CNS(=O)(=O)c1ccc(-c2ccc(N)nc2)c(-c2nn[nH]n2)c1S(N)(=O)=O [Example 303, (R)-N1-(3-amino-2-hydroxypropyl)-4-(6-aminopyridin-3-yl)-3-(2H-tetrazol-5-yl)benzene-1,2-disulfonamide] | 0.536 nM | 0.255 nM |  | 0.2197 µM | 1.953 µM | 0.5859 µM | 0.7813 µM | 0.7813 µM | 1.00 | 0.169 nM
NC[C@H](O)CNS(=O)(=O)c1ccc(-c2cccc3[nH]c(N)nc23)c(-c2nn[nH]n2)c1S(N)(=O)=O [Example 304, (S)-4-(2-amino-1H-benzo[d]imidazol-4-yl)-N1-(3-amino-2-hydroxypropyl)-3-(2H-tetrazol-5-yl)-benzene-1,2-disulfonamide] | 0.617 nM | 0.0608 nM | 0.208 nM | 0.3906 µM | 1.563 µM | 0.7813 µM | 0.3906 µM | 0.7813 µM | 0.50 | 
NCc1nc2c(-c3ccc(S(=O)(=O)NC[C@@H](O)CN)c(S(N)(=O)=O)c3-c3nn[nH]n3)cccc2[nH]1 [Example 305, (S)—N1-(3-amino-2-hydroxypropyl)-4-(2-(aminomethyl)-1H-benzo[d]imidazole-4-yl)-3-(2H-tetrazol-5-yl)benzene-1,2-disulfonamide] | 2.06 nM | 0.136 nM |  | 1.172 µM | 1.563 µM | 1.172 µM | 0.7813 µM | 0.7813 µM | 1.00 | 0.175 nM
NCc1nc2c(-c3ccc(S(=O)(=O)NC[C@@H](O)CN)c(S(N)(=O)=O)c3-c3nn[nH]n3)cccc2s1 [Example 306, (S)—N1-(3-amino-2-hydroxypropyl)-4-(2-(aminomethyl)benzo[d]thiazol-4-yl)-(2H-tetrazol-5-yl)benzene-1,2-disulfonamide] | 0.293 nM | 0.0587 nM |  | 0.7813 µM | 1.563 µM | 0.7813 µM | 0.7813 µM | 0.7813 µM | 1.00 | 0.0564 nM
NC[C@H](O)CNS(=O)(=O)c1ccc(-c2cccc3[nH]cnc23)c(-c2nn[nH]n2)c1S(N)(=O)=O [Example 307, (S)-4-(1H-benzo[d]imidazol-4-yl)-N1-(3-amino-2-hydroxypropyl)-3-(2H-tetrazol-5-yl)-benzene-1,2-disulfonamide] | 0.258 nM | 0.0339 nM | 0.113 nM | 1.563 µM | 1.563 µM | 1.563 µM | 0.7813 µM | 0.7813 µM | 1.00 | 
Cn1c(N)nc2c(-c3ccc(S(=O)(=O)NC[C@@H](O)CN)c(S(N)(=O)=O)c3-c3nn[nH]n3)cccc21 [Example 308, (S)-4-(2-amino-1-methyl-1H-benzo[d]imidazol-4-yl)-N1-(3-amino-2-hydroxypropyl)-3-(2H-tetrazol-5-yl)benzene-1,2-disulfonamide] | 0.403 nM | 0.0619 nM |  | 0.3906 µM | 1.563 µM | 0.7813 µM | 0.7813 µM | 0.7813 µM | 1.00 | 0.179 nM
